Columns and labels:
[1] = tested on: PDGFRα-positive, CD44-positive cells in the peripheral blood; assay: Mobilization of PDGFRα-positive, CD44-positive cells into peripheral blood (FACS); assay type: in vivo, mouse; conditions: 10 μg via the caudal vein, C57Bl6 mice, blood after 12 hours; PBS group 1.33%
Procedure: 10 μg of synthetic peptide (amino acids of positions 1 to 44) was dissolved in 200 μl of PBS and administered to C57B16 mice (female, 8 weeks old) via the caudal vein using a syringe with 30-gauge needle. An equal volume of PBS was administered as a negative control. After 12 hours, peripheral blood was collected from the left ventricle of the heart under systemic anesthesia with isoflurane. After adding 3 ml of PBS (Nacalai tesque; Cat. 14249-95), 3 ml of Ficoll-Paque Plus (GE Healthcare; Cat. 17-1440-02) was overlaid onto the blood. The blood was centrifuged in a centrifuge at 400 G and 25° C. for 45 minutes. The upper serum layer was discarded, and only the cells seen as a white band in the intermediate layer were collected. Then, 45 ml of PBS was added to the collected cells, and centrifuged in a centrifuge at 800 G and 25° C. for 20 minutes. After the supernatant was discarded, 10 ml of PBS was added and centrifuged at 1500 rpm and 25° C. for 10 minutes. The supernatant was discarded and 1 ml of hemolysis buffer (HLB; Immuno-Biological Laboratories) was added to the cells. After pipetting, the cells were allowed to stand for 5 minutes. Then, 10 ml of PBS was added to the cells and centrifuged at 1500 rpm and 25° C. for 10 minutes. […] The cells prepared as described above were analyzed using FACSCant™ II.

[2] = tested on: rat cerebral infarction model; assay: Middle cerebral artery thread occlusion model (cerebral infarction); assay type: in vivo; conditions: 50 μg caudal vein
Excerpt: Eight- to ten-week-old male Wister rats were used. Rats were anesthetized by isoflurane inhalation while warming on a keep-warm mat with a body temperature monitor. After confirming that the anesthetic effect was sufficient, cervical hair was removed to expose the skin. The surgical site was sterilized with alcohol. Along the cervical median line, the skin was incised with a scalpel. After the right external carotid artery was ligated and the right common carotid artery was pressurized to temporarily block the blood flow, an occlusion thread made of #4 monofilament nylon with siliconized tip was inserted into the right external carotid artery toward the right internal carotid artery. While releasing the pressure on the common carotid artery, the occlusion thread was advanced along with the blood stream from the internal carotid artery up to the bifurcation to the middle cerebral artery so that the blood flow was blocked. Furthermore, the thread around the right common carotid artery was ligated to completely block the blood flow for 50 minutes. After removing the occlusion thread and loosening the ligature at the common carotid artery, the skin was sutured to complete the surgery.
50 μg of synthetic peptide (1-44) was administered at the caudal vein. The first administration was carried out 6 hours after the production of cerebral infarction. Then, the peptide was administered five times at 24-hour intervals (five days in total).
After 14 days of the final drug administration, the rats were given sufficiently deep anesthesia, and placed in a container filled with carbon dioxide. The complete arrest of heartbeat and breathing was confirmed. Brains were excised and immediately fixed by immersion in buffered 10% formalin. After paraffin embedding, thin sections were prepared and stained with hematoxylin-eosin. Four sections were prepared from each brain at 1.92 mm anterior to bregma (1.92), 0.60 mm anterior to bregma (0.60), 1.56 mm posterior to bregma (−1.56), and 3.24 mm posterior to bregma (−3.24), and the areas were compared.

[3] = tested on: skin flap made on the back of a rat; assay: Skin flap (skin damage) model on the back of rats; assay type: in vivo; conditions: six weeks after skin flap production; 50 μg/administration/day, five administrations, FIG. 26

## synthetic peptide (1-44): chemically synthesized HMGB1 peptide, amino acids 1 to 44, mouse HMGB1 sequence (MGKGDPKKPRGKMSSYAFFVQTCREEHKKKHPDASVNFSEFSKK; UniProt P63158 1-44, looked up, fragment)
[1]
  proportion of PDGFRα-positive, CD44-positive cells in the peripheral blood, average: 4.33%
[2]; five administrations, versus negative control (PBS), FIG. 17
  infarction area (% ratio to normal brain area in the right brain), four sections: significantly reduced as compared to the negative control group
[2]; N=10, first 6 h after infarction, five times at 24-hour intervals, 14 days after final administration, negative control 8 of 11
  animals showing expansion of the infarction to the cortex: only one mouse showed expansion of the infarction to the cortex
[2]; N=10, five administrations, 14 days after final administration
  animals in which the infarction was limited in the basal nucleus: 9
[3]
  ratio of the uncured area relative to the area of the whole skin flap, average: 4.1%
